These results are taken from US20120142027A1, “Compositions and Methods for Modulating the Immune Response and Identifying Immunomodulators” (WHITEHEAD INSTITUTE FOR BIOMEDICAL RESEARCH, priority 2007, published 2012).

Test [1] deals with RAW macrophages stably expressing wild type UNC93B-HA. As to the kind of experiment: Endo H sensitivity of UNC93B-HA and Class I MHC in RAW macrophages. The class given is cell-based, mouse. As to conditions: Brefeldin A 10 μg/ml, present throughout pulse, chase and CpG stimulation. As to the method: FIG. 14. The interaction between UNC93B and TLRs maintains in dendritic cells stimulated with TLR agonists. (a) BM-DCs were metabolically labeled with ^35S-methionine/cysteine and stimulated with TLR ligands for 1 h (LPS: 1 μg/ml, poly (I:C): 50 μg/ml, Imiquimod: 2.5 CpG DNA: 2.5 μM). Endogenous UNC93B and TLRs were immunoprecipitated with an anti-UNC93B antibody, digested with endoglycosidase H (Endo H), subjected to 10% SDS-PAGE and visualized by fluorography. TLRs coimmunoprecipitated with UNC93B are denoted by open triangles. Interaction between TLRs and UNC93B was maintained even after TLR stimulation with various agonists. […] NRS; normal rabbit serum (b) RAW macrophages stably expressing wild type UNC93B-HA were exposed to Brefeldin A (10 μg/ml) for 2 h, metabolically labeled with ^35S-methionine/cysteine for 30 min (pulse), incubated in normal medium for 2 h (chase) followed by 2 h stimulation with CpG (+CpG) or were left unstimulated (−CpG). All incubations (pulse, chase, CpG stimulation) were done in the continuous presence of Brefeldin A. As a control, cells were not treated with Brefeldin A (−BA). Cells were lysed in RIPA buffer and UNC93B-HA and Class I MHC products were recovered from cell lysates by immunoprecipitation with an anti-HA (upper panel) or Class I antibody (lower panel), respectively. […]

Test [2] has as its system UNC93B/TLR interaction in A20 B cells. The test can be described thus: Coimmunoprecipitation of TLRs with UNC93B-HA after stimulation with TLR agonists. The class given is cell-based, mouse. As to conditions: imiquimod 10 μM, gardiquimod 1 μM, CpG DNA 1 μM, 1 h. How it is done:
Stimulation with TLR agonists. A20 B cells either not transduced or stably transduced with UNC93B-HA WT or H412R were metabolically labeled with ^35S-methionine/cysteine for 4 h (pulse). TLR agonists were added to the cells for the final hour of the pulse at the following concentrations: imiquimod: 10 μM, gardiquimod: 1 μM, CpG DNA: 1 μM.
Pulse-chase, immunoprecipitation and Endo H/F assay. In brief, cells were starved for methionine and cysteine in Met/Cys-free DMEM (starvation medium) for 30 min, pulsed for different time periods (see figure legends) with ^35S-labeled methionine/cysteine (Perkin Elmer) in starvation medium supplemented with dialyzed IFS, and chased with an excess of non-radioactive amino acids in regular DMEM for various time periods (see figure legends). Cells were lysed in either of the following lysis buffers supplemented with the complete protease inhibitors (Roche) as indicated in the figure legends: RIPA (20 mM Tris-HCl, pH 7.4, 1 mM EDTA, 100 mM NaCl, 1% Triton X-100, 0.5% sodium deoxycholate, 0.1% SDS), or buffer containing 50 mM Tris-HCl, pH 7.4, 150 mM NaCl, 5 mM EDTA with either 1% NP-40 or 1% digitonin as detergent. Lysates were equalized for incorporation of radioactive material with ^35S counts in the trichloroacetic acid precipitate and immunoprecipitated with the indicated antibodies. […]

Test [3] has as its system TLR signaling. As to conditions: pretreatment of wild type cells; cited from earlier work.
Test [4] deals with T1, TLR7 (Mus musculus, UniProt P58681).
T1 construct: expressed in transfected cells; host or cells: bone marrow-derived dendritic cells from B6 or 3d mice, retroviral transduction (pMXrmv5-TLR7-YFP)
T1 sequence (P58681 27-1050): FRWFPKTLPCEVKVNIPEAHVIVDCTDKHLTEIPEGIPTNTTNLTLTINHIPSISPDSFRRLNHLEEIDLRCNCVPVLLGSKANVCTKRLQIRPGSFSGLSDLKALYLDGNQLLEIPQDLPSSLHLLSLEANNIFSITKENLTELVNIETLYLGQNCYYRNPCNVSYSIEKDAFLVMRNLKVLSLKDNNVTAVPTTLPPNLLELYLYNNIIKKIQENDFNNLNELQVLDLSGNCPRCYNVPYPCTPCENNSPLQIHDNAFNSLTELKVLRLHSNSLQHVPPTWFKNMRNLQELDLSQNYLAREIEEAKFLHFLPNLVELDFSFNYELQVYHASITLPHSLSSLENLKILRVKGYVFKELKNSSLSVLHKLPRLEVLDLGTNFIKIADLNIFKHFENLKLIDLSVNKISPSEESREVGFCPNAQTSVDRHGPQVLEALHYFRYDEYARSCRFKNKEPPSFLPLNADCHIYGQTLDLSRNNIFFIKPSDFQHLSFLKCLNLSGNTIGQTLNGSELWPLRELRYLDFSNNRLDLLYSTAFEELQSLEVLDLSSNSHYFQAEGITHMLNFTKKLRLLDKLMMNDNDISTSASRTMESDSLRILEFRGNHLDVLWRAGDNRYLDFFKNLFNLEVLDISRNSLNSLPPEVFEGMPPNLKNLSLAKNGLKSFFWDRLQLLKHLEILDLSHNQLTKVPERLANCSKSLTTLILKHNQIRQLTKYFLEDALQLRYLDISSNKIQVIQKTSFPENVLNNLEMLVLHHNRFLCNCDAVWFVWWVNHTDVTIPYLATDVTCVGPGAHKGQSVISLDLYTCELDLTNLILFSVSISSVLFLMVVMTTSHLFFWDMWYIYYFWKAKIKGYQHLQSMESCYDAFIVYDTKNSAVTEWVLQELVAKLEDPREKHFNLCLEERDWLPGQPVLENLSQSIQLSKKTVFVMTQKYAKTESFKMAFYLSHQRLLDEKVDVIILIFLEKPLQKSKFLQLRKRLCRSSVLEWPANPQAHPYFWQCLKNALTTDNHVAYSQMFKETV
As to the kind of experiment: Live cell imaging of TLR7-YFP localization in BM-DCs. The class given is cell-based. As to conditions: wild type (B6) BM-DCs, 1 μM imiquimod, 2 h.
Description: Image acquisition and data analysis. For live cell imaging, cells were grown in 8 well-chambered coverglasses (LAB-TEK). During imaging, cells were maintained in phenol red-free DMEM supplemented with 25 mM Hepes (pH 7.4) at 37° C. with 5% supplemental CO2 in room air using a Solent scientific chamber. Images were acquired using a spinning disk confocal microscope equipped with a 3 watt water-cooled 5 line laser (Prairie Technologies), a Nikon TE2000-U inverted microscope, acousto-optic tunable filters (AOTF), a Yokagawa QLC-100 spinning disk confocal head, a Prior x,y stage controller, a Piezo z stage and Hamamatsu Orca ER and EM CCD cameras. All images were taken with a Nikon 100X 1.4NA DIC lens. Metamorph (Molecular Devices) was used for image acquisition and figures were constructed using Adobe Photoshop and Illustrator. Quantitative colocalization analyses were performed using applications ‘Measure Colocalization’ and ‘Correlation Plot’ in the MetaMorph software (Molecular Devices).

Test [5] has as its system BM-DCs. As to the kind of experiment: TNF production in BM-DCs stimulated with TLR agonists (intracellular TNF, flow cytometry). The class given is cell-based, mouse. As to conditions: BM-DCs from 3d (UNC93B H412R) mice; 100 nM imiquimod or 1 μM CpG, 4 h, with 10 μg/ml brefeldin A. As to the method:
TNF assay. Five days old BM-DCs expressing either wild type or mutant UNC93B-GFP were stimulated with 1 μg/ml LPS, 100 nM imiquimod or 1 μM CpG for 4 hours in the presence of 10 μg/ml brefeldin A. The cells were fixed with 4% formaldehyde for 10 min at RT and permeabilized with 0.5% saponin in FACS buffer (PBS with 2% BSA and 0.05% sodium azide) for 10 min. After blocking with anti-CD16 antibody (clone 2.4G2) for 30 min, cells were stained with PE-conjugated anti-CD11c (clone HL3) and Alexa Fluor 647-conjugated anti-TNF (clone MP6-XT22) antibodies for 30 min. Fluorescence intensity was measured with LSR I flow cytometer (BD biosciences). Data were collected with CellQuest (BD biosciences) and analyzed with FlowJo (TriStar).
In general terms: A flow cytometer gives signals particle by particle.

Test [6] has as its system BM-DCs. As to the kind of experiment: Surface MHC class II level on BM-DCs by flow cytometry. Format: cell-based, mouse. As to conditions: B6 or 3d BM-DCs; 1 μg/ml LPS, 1 μM CpG or 1 μM imiquimod, 16 h.
Description: (b) BM-DCs from B6 and 3d mice were fixed, permeablized and stained for MHC class II (green) and Lamp1 (red). […] White dashed lines mark the cell boundary. […] (d) B6 or 3d BM-DCs were stimulated with 1 μg/ml LPS or 1 μM CpG for 16 h, fixed, permeabilized and stained for MHC class II and Lamp1. […] Scale bars; 10 μm

As for `C[C@H]1CCC/C=C/[C@@H]2C[C@H](O)C[C@H]2[C@H](O)/C=C/C(=O)O1` [Brefeldin A], the “Endo H resistance of Class I MHC and UNC93B” value in test [1] was “both Class I MHC and UNC93B acquire partially EndoH resistant hybrid type oligosaccharides”.
For the compound `CCNCc1nc2c(N)nc3ccccc3c2n1CC(C)(C)O` [gardiquimod], the “levels of coimmunoprecipitated TLR polypeptides after TLR activation versus unstimulated cells” value in test [2] is “No significant changes”.
As to `CO/C1=C\C(C)=C\[C@@H](C)[C@@H](O)[C@@H](C)C/C(C)=C/C=C/[C@H](OC)[C@@H]([C@@H](C)[C@@H](O)[C@H](C)[C@@]2(O)C[C@@H](O)[C@H](C)[C@@H](C(C)C)O2)OC1=O` [bafilomycin], in test [3], the “effect on TLR signaling compared with the defects of 3d cells” value is recorded as “mimicked”.
For `CC(C)Cn1cnc2c(N)nc3ccccc3c21` [imiquimod, Imiquimod], the “localization of TLR7 after stimulation” value in test [4] is reported as “trafficking of TLR7 from the ER to endolysosomes was also observed”. The “levels of coimmunoprecipitated TLR polypeptides after TLR activation versus unstimulated cells” value in test [2] was “No significant changes”. Moreover, the TNF production result in test [5] is “failed to produce TNF”. In addition, the “surface level of MHC class II” value in test [6] is recorded as “failed to increase the MHC class II level in 3d cells”.
For `CCN(CC)CCCC(C)Nc1ccnc2cc(Cl)ccc12` (centres unmarked) [chloroquine], the “effect on TLR signaling compared with the defects of 3d cells” value in test [3] was “mimicked”.
